Earlier results on four compounds are cited in patent publication US10765646B2, “Methods of treating developmental encephalopathies” (Ovid Therapeutics Inc., priority 2017, dated 2020).

The conditions of series [1]: estimated.
The conditions of series [2]: 5 mg (±)-ketamine i.v. infusion (30 min), single dose, fasting, healthy subjects, serum.
For series [3] the following is noted: relative to ketamine.
Series [4] has as its target NMDA receptor. As to conditions: noncompetitive NMDA receptor antagonist.

As to `CNC1(c2ccccc2Cl)CCCCC1=O` (racemic) [ketamine, (R,S)-2-(2-chlorophenyl)-2-(methylamino)cyclohexanone], the elimination half-life in series [1] is 2 to 3 h. Further, in series [2], the “AUC0-∞ of (±)-ketamine” value is 59.9 ± 13.2 ng·h/mL, the “Cmax of (±)-ketamine” value was 33.7 ± 9.74 ng/mL and the “T1/2 (apparent terminal half-life) of (±)-ketamine” value was 6.99 ± 5.22 h.

Turning to `NC1(c2ccccc2Cl)CCCCC1=O` (racemic) [norketamine, (R,S)-2-(2-chlorophenyl)-2-(amino)cyclohexanone], the “times less potent as an anesthetic in comparison (with ketamine)” value in series [3] is reported as 3-5 times. Moreover, in series [1], the elimination half-life was 4 h.

As a reminder, the Ki is a measure of affinity in units of concentration, obtained from inhibition or displacement. Regarding `N[C@@]1(c2ccccc2Cl)CCCCC1=O` [(R)-(−)-norketamine], in series [4], the Ki was 13 µM.

For `N[C@]1(c2ccccc2Cl)CCCCC1=O` [(S)-(+)-norketamine], in series [4], the inhibitory constant (Ki) is 1.7 µM.
